In publication PMC7641245 (Chemical communications (Cambridge, England), 2020) one finds Kd data, which are given here for 1 substance.

The test concerns the target T1, hIAPP (human islet amyloid polypeptide) (Homo sapiens, UniProt P10997).
T1 sequence (P10997 34-70): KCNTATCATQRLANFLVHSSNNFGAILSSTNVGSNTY
Description: isothermal titration calorimetry. Format: binding. The following applies: hIAPP fibers; no interaction seen by ITC with hIAPP monomers. Background: ITC needs no label: the signal is the heat of the interaction.

With CurDAc, the Kd is roughly 7 µM.

What is called Kd is the constant that tells how readily two partners part at equilibrium. A higher Kd goes with weaker binding.
